Data: ChEMBL document CHEMBL1142409, “Synthetic ligands that activate and inhibit a quorum-sensing regulator in Pseudomonas aeruginosa” (Bioorg Med Chem Lett, 2008)

Experiments:
[1] = target: T1, PhzR (Pseudomonas aeruginosa) (UniProt Q9RMS5); assay: Antagonist activity at Pseudomonas aeruginosa QscR expressed in Escherichia coli assessed as inhibition of dodecanoyl homoserine lactone induced production of beta-galactosidase at 5 uM; assay type: functional
T1 sequence (whole entry): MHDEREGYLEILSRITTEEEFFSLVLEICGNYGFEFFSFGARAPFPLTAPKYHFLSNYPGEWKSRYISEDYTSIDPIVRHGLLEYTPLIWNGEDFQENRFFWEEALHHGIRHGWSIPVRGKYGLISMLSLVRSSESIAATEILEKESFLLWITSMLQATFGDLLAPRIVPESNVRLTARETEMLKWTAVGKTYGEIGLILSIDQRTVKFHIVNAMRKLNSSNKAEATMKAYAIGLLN

[2] = target: T2, Transcriptional activator protein LasR (Pseudomonas aeruginosa (strain ATCC 15692 / PAO1 / 1C / PRS 101 / LMG12228)) (UniProt P25084); assay: Inhibition of Pseudomonas aeruginosa LasR; design: concentration or dose not given beside the values; settings: concentration not given here
T2 sequence (whole entry): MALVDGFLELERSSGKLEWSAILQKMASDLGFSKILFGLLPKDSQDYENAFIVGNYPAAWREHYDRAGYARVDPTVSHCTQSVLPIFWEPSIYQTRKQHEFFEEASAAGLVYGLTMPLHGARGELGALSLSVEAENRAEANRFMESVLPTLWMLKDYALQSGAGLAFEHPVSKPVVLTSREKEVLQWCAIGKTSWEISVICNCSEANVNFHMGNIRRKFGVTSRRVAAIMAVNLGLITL

(Pseudomonas aeruginosa) = target: T3, (Pseudomonas aeruginosa) (UniProt Q9RMS5); assay: Agonist activity at Pseudomonas aeruginosa QscR expressed in Escherichia coli assessed as production of beta-galactosidase at 5 uM relative to dodecanoyl homoserine lactone; assay type: functional
T3 sequence (whole entry): T1 sequence (whole entry)

[3] = target: QscR (Pseudomonas aeruginosa); assay: Antagonist activity at Pseudomonas aeruginosa QscR expressed in Escherichia coli assessed as inhibition of dodecanoyl homoserine lactone induced production of beta-galactosidase
[4] = target: T1, PhzR (Pseudomonas aeruginosa); assay: Inhibition of binding of Pseudomonas aeruginosa QscR to DNA at 200 uM in presence of 3-oxo-dodecanoyl -L-homoserine lactone by electromobility shift assay

| Compound | inhibition [1] [%] | inhibition [2] [%] | Activity ((Pseudomonas aeruginosa)) [%] | IC50 [3] [nM] | inhibition [4] [%] |
| --- | --- | --- | --- | --- | --- |
| O=C(Cc1cccc(Br)c1)N[C@H]1CCOC1=O | 71 | 50 | – | – | – |
| O=C(Cc1cccc(I)c1)N[C@H]1CCOC1=O | 70 | 50 | – | – | – |
| CCCCCCCCCCCS(=O)(=O)N[C@H]1CCOC1=O | – | – | 51 | – | – |
| CCOc1ccc(CC(=O)N[C@H]2CCOC2=O)cc1 | 75 | – | – | 160 | 82 |
| CCCCCCCCCC(=O)CC(=O)N[C@H]1CCOC1=O | – | – | 109 | – | – |
| CCCc1ccc(C(=O)CCC(=O)N[C@H]2CCOC2=O)cc1 | – | – | 54 | – | – |
| O=C(Cc1cccc(Cl)c1)N[C@H]1CCOC1=O | 73 | 50 | – | – | – |
| O=C(CC(=O)N[C@@H]1CCOC1=O)Cc1ccccc1 | – | – | 59 | – | – |
| CCCCCCCCCCCC(=O)CC(=O)N[C@H]1CCOC1=O | – | – | 78 | – | – |
| O=C(Cc1ccc(-c2ccccc2)cc1)N[C@H]1CCOC1=O | 88 | 20 | – | 30 | 100 |
| CC(C)(C)OC(=O)NCc1ccc(C(=O)N[C@H]2CCOC2=O)cc1 | 77 | – | – | 200 | 59 |
| O=C(N[C@H]1CCOC1=O)c1ccc(Br)cc1 | 78 | – | – | 180 | 71 |
| CCCCCCCC(=O)N[C@H]1CCOC1=O | – | > 50 | 59 | – | – |
| CC(C)(C)OC(=O)Nc1ccc(CC(=O)N[C@H]2CCOC2=O)cc1 | – | – | 61 | – | – |
| O=C(CCc1ccc(Br)cc1)N[C@H]1CCOC1=O | – | > 50 | 64 | – | – |
| CCCCCCCCc1ccc(C(=O)N[C@H]2CCOC2=O)cc1 | 76 | – | – | – | 100 |
| CCCCCCCCCC(=O)N[C@H]1CCOC1=O | – | – | 104 | – | – |
| O=C(Cc1cccc([N+](=O)[O-])c1)N[C@H]1CCOC1=O | 71 | 50 | – | – | – |
| CCCCCC(=O)CC(=O)N[C@H]1CCOC1=O | – | > 50 | 74 | – | – |
